# Assays:
# HT-22 cells [1] = test: HT-22 cell viability during H2O2 exposure (calcein AM assay); format: cell-based, mouse; conditions: for pre-incubation required to achieve significant neuroprotection from H2O2 toxicity / protection against H2O2: HT-22; for concentrations toxic to HT-22 cells: HT-22, H2O2 experiments; for protection against H2O2: 24 h pretreatment, 30 μM H2O2; for protection when given after the H2O2 insult: post-treatment
# Method: HT-22 cultures were incubated with different concentrations of the three compounds for 24 hours prior to the insult. […] Peak neuroprotective concentrations for 15d-PGJ2 ranged from […]. […] Additionally, we determined the effects of 15d-PGJ2 and troglitazone on HT-22 cells protection against another type of pro-oxidant insult, hydrogen peroxide H2O2. […] Higher concentrations (>10 μM and >20 μM) of 15 dPGJ2 and troglitazone, respectively, were toxic to HT-22 cells. […] HT-22 cells were pre-treated with 15d-PGJ2 for 24 hours. Thirty micromolar of H2O2 was then administered, and cell viability was determined 24 hours later. The cell viability is expressed as a % survival of the control (non-peroxide treated) cultures. DMSO received the vehicle only for 15d-PGJ2. Shown in FIG. 23 are the mean±SEM for n>6 cultures/group. The asterisk (“*”) indicates p<0.05 versus respective control.
# (§1) The WY-14643, Ciglitazone, Troglitazone, 9-cis retinoic acid, and 15d-PGJ2 compounds were purchased from Biomol (Plymouth Meeting, Pa.). L-165041 and L-783483 were kindly provided by Merck Laboratories. The cell lines used were HT-22, an immortalized mouse hippocampal cell line, and SK—N—SH, a human neuroblastoma cell line. The HT-22 cells were obtained from David Schubert (Salk Institute, San Diego, Calif.). The HT-22 line was originally selected from HT-4 cells based on glutamate sensitivity. HT-4 cells were immortalized from primary hippocampal neurons using a temperature-sensitive SV-40 T antigen (Morimoto and Koshland, 1990). SK—N—SH were obtained from ATCC (Manassas, Va.). HT-22 and SK—N—SH cells were grown to confluence in DMEM and RPMI-1640 media, respectively, and supplemented with 10% charcoal/dextran-treated fetal bovine serum (FBS), and 5 mg/ml gentamycin at 37° C. under 95% air, 5% CO2. HT-22 cells were plated at a density of 50,000 cells/ml (5,000 cells/well), and SK—N—SH were plated at a density of 120,000 to 150,000 cells/ml (12,000 to 15,000 cells/well) in 96-well plates. In most studies, wells were pre-treated with PPAR ligands over a wide dose range at various times prior to being subjected to either glutamate, hydrogen peroxide (H2O2), or serum deprivation insults. In some studies, the insults were applied prior to the addition of the PPAR ligand.
# (§2) The cell viability assays were conducted about 14 to 24 hours post-insult time, viability of cells was determined using 2.5 μM Calcein AM assay in phosphate-buffered saline (PBS). After 25 minutes of incubation, live cells were distinguished by the presence of intracellular esterase activity, which cleaves the calcein AM dye, producing a bright green fluorescence. Viability was measured in Relative Fluorescent Units (“RFU”), and expressed as percentage of vehicle-treated control values. The calcein assay was designed to produce results that accurately reflect viable cell numbers. At cell concentrations below 10,000 cells per well (96-well plate) a linear relationship between RFU and cell number is achieved (r^2=0.9997, data not shown).
# HT-22 cells [2] = test: HT-22 serum deprivation toxicity; format: cell-based, mouse; conditions: for protection against serum deprivation: 24 h in 10% FBS with compound, then about 12 h serum free medium; for concentration enhancing serum deprivation-induced toxicity: HT-22
# Method: The effects of pretreatment of HT-22 cells with PPARγ agonists on serum deprivation toxicity were also studied. We examined whether 15d-PGJ2 or troglitazone have neuroprotective activity against serum deprivation toxicity. HT-22 cells were incubated for 24 hours in 10% FBS medium containing either 15d-PGJ2 or troglitazone. Then, cells were exposed for about 12 hours to a serum free medium with both of the compounds present. […] In addition, 15d-PGJ2 and troglitazone enhanced the serum deprivation-induced toxicity at or above 10 μM and 20 μM, respectively.
# as §1, §2
SMILES,pre-incubation required to achieve significant neuroprotection from H2O2 toxicity (HT-22 cells [1]),concentrations toxic to HT-22 cells (HT-22 cells [1]),protection against H2O2 (HT-22 cells [1]),protection when given after the H2O2 insult (HT-22 cells [1]),protection against serum deprivation (HT-22 cells [2]),concentration enhancing serum deprivation-induced toxicity (HT-22 cells [2])
"CCCCC/C=C/C=C1/C(=O)C=C[C@@H]1C/C=C\CCCC(=O)O [15d-PGJ2, 15-deoxy-Δ^12,14-PGJ2]",4 h,above 10 μM,dose-dependent protection,Neither 15dPGJ2 nor troglitazone protected,failed to protect,≥ 10 µM
Cc1c(C)c2c(c(C)c1O)CCC(C)(COc1ccc(CC3SC(=O)NC3=O)cc1)O2 (stereo not drawn) [troglitazone],4 h,> 20 µM,dose-dependent protection,Neither 15dPGJ2 nor troglitazone protected,failed to protect,≥ 20 µM

# Reference: patent publication US20040224995A1 (University of North Texas Health Science Center at Fort …, priority 2003, published 2004)
